Measurements taken from US12134610B2, “Somatostatin subtype-2 receptor (SST2R) targeted therapeutics and uses thereof” (priority 2022, dated 2024).
Read-outs that look alike come from different tables or passages of the source. Starred links: 1 amine or outer side, 2 acyl side, 3 side chain; linkers in the order of their positions; H or OH if unused. Non-standard residues stand in square brackets, D forms with d. Residues, ends and D or L forms follow the SMILES beside them. *: point of attachment. X4 = Cc1cc(F)cc(-c2cnc(NCCNC(=O)CCOCCOCCOCCOCCC(=O)*)c(-c3nc4ccc(Cl)cc4[nH]3)c2N2CCC(N)CC2)c1; X1 = Cc1cc(F)cc(-c2cnc(NCCNC(=O)CCOCCC(=O)*)c(-c3nc4ccc(Cl)cc4[nH]3)c2N2CCC(N)CC2)c1; Dolaproine = CO[C@@H]([C@@H]1CCCN1)[C@@H](C)C(=O)O; Dil = CC[C@H](C)[C@H](NC)[C@@H](CC(=O)O)OC; PABC = O=C(OCc1ccc(N[*:1])cc1)[*:2]; X2 = C[C@@H](N*)[C@@H](O)c1ccccc1; Cit = NC(=O)NCCC[C@H](N)C(=O)O; NMeV = CN[C@H](C(=O)O)C(C)C

Assays:
Assay type in all cases: cell-based
[1] = biological target: T1, SST2 (Homo sapiens, UniProt P30874); test: PathHunter CHO-K1 SST2 internalization assay; details: PathHunter CHO-K1 SST2, 90 min
T1 construct: host or cells: PathHunter CHO-K1 SST2 cells
T1 sequence (P30874 whole entry): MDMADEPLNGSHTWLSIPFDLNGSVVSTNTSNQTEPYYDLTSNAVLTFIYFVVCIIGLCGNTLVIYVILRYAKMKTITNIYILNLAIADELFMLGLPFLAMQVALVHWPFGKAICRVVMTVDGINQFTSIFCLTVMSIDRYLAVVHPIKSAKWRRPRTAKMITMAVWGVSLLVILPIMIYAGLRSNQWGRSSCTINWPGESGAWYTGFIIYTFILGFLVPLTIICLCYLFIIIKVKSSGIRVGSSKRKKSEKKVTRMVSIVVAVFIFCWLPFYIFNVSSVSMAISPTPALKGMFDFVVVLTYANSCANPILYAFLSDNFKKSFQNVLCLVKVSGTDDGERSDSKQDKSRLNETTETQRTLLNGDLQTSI
How it was run: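 IC50 comes from four-parameter curves on background-corrected duplicates of Beta-Glo luminescence, read after 60 min at room temperature in the dark. Before that, CHO-K1 SST2 internalization cells (48 h post-seeding) received SMDC as eleven threefold dilutions, 10 uM highest final, for 90 min at 37 C.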

[2] = tested on: NCI-H524 (ATCC) human small cell lung cancer cells
How it was run: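 CellTiter-Glo luminescence after a 2 h SMDC pulse (top dose 1 uM, 2-fold dilutions, 11 points), medium wash, then 70 h recovery. Cells were seeded at 5,000/well and dosed 24 h later. % inhibition vs control gave IC50 via four-parameter fit.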

[3] = biological target: T2, human somatostatin receptor subtype 2 (Homo sapiens, UniProt P30874); test: Functional cAMP assay for SSTR2 agonists (HTRF) in CHO-K1 cells; details: CHO-K1 cells stably expressing human SST2, 20 min
T2 construct: expressed in transfected cells
T2 sequence (P30874 whole entry): as above
How it was run: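 Agonism scored as loss of NKH477 (1.6 μM)-driven cAMP, with IBMX present, after 20 min, 37° C. exposure of stably transfected CHO-K1 cells to compound dilutions (typically 0-10,000 nM). Lysates read by time-resolved FRET; cAMP interpolated from standard curve and EC50 derived.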

| Compound | EC50 ([1]; read-out: Internalization EC50) [nM] | EC50 ([2]; 2 h) [nM] | EC50 ([3]; read-out: hSST2 cAMP Avg EC50) [nM] | EC50 ([1]; Internalization EC50 (nM)) [nM] | EC50 ([2]; 2 h treatment, washout, additional 70 h, read-out: H524 EC50) [nM] | EC50 ([3]; hSST2 cAMP Avg EC50 (nM)) [nM] |
| --- | --- | --- | --- | --- | --- | --- |
| CC[C@H](C)[C@@H]([C@@H](CC(=O)N1CCC[C@H]1[C@H](OC)[C@@H](C)C(=O)N[C@H](C)[C@@H](O)c1ccccc1)OC)N(C)C(=O)[C@@H](NC(=O)[C@H](C(C)C)N(C)C(=O)OCc1ccc(NC(=O)[C@H](CCCNC(N)=O)NC(=O)[C@@H](NC(=O)[C@H](CCC(=O)O)NC(=O)CCOCCC(=O)NCCNc2ncc(-c3cc(C)cc(F)c3)c(N3CCC(N)CC3)c2-c2nc3ccc(Cl)cc3[nH]2)C(C)C)cc1)C(C)C [Compound 36] (X1-EV[Cit][PABC][NMeV]V[Dil][Dolaproine]-X2) | 12.9 | 44.1 | 0.25 | – | – | – |
| CC[C@H](C)[C@@H]([C@@H](CC(=O)N1CCC[C@H]1[C@H](OC)[C@@H](C)C(=O)N[C@H](C)[C@@H](O)c1ccccc1)OC)N(C)C(=O)[C@@H](NC(=O)[C@H](C(C)C)N(C)C(=O)OCc1ccc(NC(=O)[C@H](CCCNC(N)=O)NC(=O)[C@@H](NC(=O)CCOCCNC(=O)CN2CCN(CC(=O)O)CCN(CC(=O)NCCNc3ncc(-c4cc(C)cc(F)c4)c(N4CCC(N)CC4)c3-c3nc4ccc(Cl)cc4[nH]3)CC2)C(C)C)cc1)C(C)C [Compound 37] | 13.7 | 102 | 0.071 | – | – | – |
| CC[C@@]1(O)C(=O)OCc2c1cc1n(c2=O)Cc2c-1nc1cc(F)c(C)c3c1c2[C@@H](NC(=O)OCc1ccc(NC(=O)[C@H](CCCNC(N)=O)NC(=O)[C@@H](NC(=O)CCOCCOCCOCCOCCC(=O)NCCNc2ncc(-c4cc(C)cc(F)c4)c(N4CCC(N)CC4)c2-c2nc4ccc(Cl)cc4[nH]2)C(C)C)cc1)CC3 [Compound 38] | – | – | – | 1 | 59.4 | 0.11 |
| CC[C@H](C)[C@@H]([C@@H](CC(=O)N1CCC[C@H]1[C@H](OC)[C@@H](C)C(=O)N[C@H](C)[C@@H](O)c1ccccc1)OC)N(C)C(=O)[C@@H](NC(=O)[C@H](C(C)C)N(C)C(=O)OCc1ccc(NC(=O)[C@H](CCCNC(N)=O)NC(=O)[C@@H](NC(=O)CN2CCN(CC(=O)O)CCN(CC(=O)NCCOCCOCCOCCOCCC(=O)NCCNc3ncc(-c4cc(C)cc(F)c4)c(N4CCC(N)CC4)c3-c3nc4ccc(Cl)cc4[nH]3)CC2)C(C)C)cc1)C(C)C [Compound 39] | 18.7 | 35.9 | 0.12 | – | – | – |
| CC[C@H](C)[C@@H]([C@@H](CC(=O)N1CCC[C@H]1[C@H](OC)[C@@H](C)C(=O)N[C@@H](Cc1ccccc1)C(=O)O)OC)N(C)C(=O)[C@@H](NC(=O)[C@H](C(C)C)N(C)C(=O)OCc1ccc(NC(=O)[C@H](CCCNC(N)=O)NC(=O)[C@@H](NC(=O)CCOCCOCCOCCOCCC(=O)NCCNc2ncc(-c3cc(C)cc(F)c3)c(N3CCC(N)CC3)c2-c2nc3ccc(Cl)cc3[nH]2)C(C)C)cc1)C(C)C [Compound 42] (X4-V[Cit][PABC][NMeV]V[Dil][Dolaproine]F-OH) | 8.6 | 57.3 | 0.12 | – | – | – |
| CC[C@H](C)[C@@H]([C@@H](CC(=O)N1CCC[C@H]1[C@H](OC)[C@@H](C)C(=O)N[C@H](C)[C@@H](O)c1ccccc1)OC)N(C)C(=O)[C@@H](NC(=O)[C@H](C(C)C)N(C)C(=O)OCc1ccc(NC(=O)[C@H](CCCNC(N)=O)NC(=O)[C@@H](NC(=O)CCOCCNC(=O)CN2CCN(CC(=O)O)CCN(CC(=O)NCCOCCOCCOCCOCCC(=O)NCCNc3ncc(-c4cc(C)cc(F)c4)c(N4CCC(N)CC4)c3-c3nc4ccc(Cl)cc4[nH]3)CC2)C(C)C)cc1)C(C)C [Compound 43] | 18.1 | 82.6 | 0.29 | – | – | – |
| CC[C@@H](C)[C@H]([C@H](CC(=O)N1CCC[C@@H]1[C@@H](OC)[C@H](C)C(=O)N[C@@H](C)[C@H](O)c1ccccc1)OC)N(C)C(=O)C(NC(=O)[C@@H](C(C)C)N(C)C(=O)OCc1ccc(NC(=O)[C@H](CCCNC(N)=O)NC(=O)[C@@H](NC(=O)CCOCCNC(=O)[C@H](CS(=O)(=O)O)NC(=O)CCOCCOCCOCCOCCC(=O)NCCNc2ncc(-c3cc(C)cc(F)c3)c(N3CCC(N)CC3)c2-c2nc3ccc(Cl)cc3[nH]2)C(C)C)cc1)C(C)C (stereo partly drawn) [Compound 44] | 17.2 | 101 | 0.089 | – | – | – |
| CC[C@H](C)[C@@H]([C@@H](CC(=O)N1CCC[C@H]1[C@H](OC)[C@@H](C)C(=O)N[C@H](C)[C@@H](O)c1ccccc1)OC)N(C)C(=O)[C@@H](NC(=O)[C@H](C(C)C)N(C)C(=O)OCc1ccc(NC(=O)[C@H](CCCNC(N)=O)NC(=O)[C@@H](NC(=O)[C@H](CS(=O)(=O)O)NC(=O)CCOCCOCCOCCOCCC(=O)NCCNc2ncc(-c3cc(C)cc(F)c3)c(N3CCC(N)CC3)c2-c2nc3ccc(Cl)cc3[nH]2)C(C)C)cc1)C(C)C [Compound 45] | 21 | 32 | 0.12 | – | – | – |
